Results: paper PMC8550792, “Evolution of kinase polypharmacology across HSP90 drug discovery” (Cell Chemical Biology, 2021)

Assays:
382 unique human kinases [1] = molecular target: T1, 382 unique human kinases (Homo sapiens, UniProt P37173); assay: biochemical; format: biochemical; conditions: kinase TGFBR2; read-out: Control Compound IC50*
T1 construct: purchased Reaction Biology (HotSpot contract assay)

382 unique human kinases [2] = molecular target: T2, 382 unique human kinases (Homo sapiens, UniProt P41279); assay: biochemical; format: biochemical; conditions: COT1/MAP3K8; read-out: Control Compound IC50*
T2 construct: purchased Reaction Biology (HotSpot contract assay)

382 unique human kinases [3] = molecular target: T3, 382 unique human kinases (Homo sapiens, UniProt Q86Y07); assay: biochemical; format: biochemical; conditions: kinase VRK2; read-out: Control Compound IC50*
T3 construct: purchased Reaction Biology (HotSpot contract assay)

382 unique human kinases [4] = molecular target: T4, 382 unique human kinases (Homo sapiens, UniProt Q86Z02); assay: biochemical; format: biochemical; conditions: HIPK1; read-out: Control Compound IC50*
T4 construct: purchased Reaction Biology (HotSpot contract assay)

382 unique human kinases [5] = molecular target: T5, 382 unique human kinases (Homo sapiens, UniProt Q92918); assay: biochemical; format: biochemical; conditions: kinase HPK1/MAP4K1; read-out: Control Compound IC50*
T5 construct: purchased Reaction Biology (HotSpot contract assay)

382 unique human kinases [6] = molecular target: T6, 382 unique human kinases (Homo sapiens, UniProt Q99986); assay: biochemical; format: biochemical; conditions: VRK1; read-out: Control Compound IC50*
T6 construct: purchased Reaction Biology (HotSpot contract assay)
T6 sequence (Q99986 1-396): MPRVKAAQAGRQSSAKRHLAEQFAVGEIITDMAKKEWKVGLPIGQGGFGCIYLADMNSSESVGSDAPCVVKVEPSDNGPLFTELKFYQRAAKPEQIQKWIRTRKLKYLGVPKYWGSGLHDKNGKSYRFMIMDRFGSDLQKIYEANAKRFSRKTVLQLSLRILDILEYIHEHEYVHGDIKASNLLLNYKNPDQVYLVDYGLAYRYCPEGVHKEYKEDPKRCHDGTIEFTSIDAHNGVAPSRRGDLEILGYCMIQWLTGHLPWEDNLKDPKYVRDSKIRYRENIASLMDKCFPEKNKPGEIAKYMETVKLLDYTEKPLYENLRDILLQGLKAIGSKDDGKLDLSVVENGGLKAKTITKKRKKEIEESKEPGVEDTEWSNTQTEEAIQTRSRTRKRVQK

ABL2/ARG = molecular target: T7, ABL2/ARG (Homo sapiens, UniProt P42684); assay: HotSpot in vitro kinase radiometric assay; format: biochemical; conditions: 10uM, ATP 30 uM, Data 1, Data 2
T7 construct: purchased Reaction Biology (HotSpot contract assay)

BLK = molecular target: T8, BLK (Homo sapiens, UniProt P51451); assay: HotSpot in vitro kinase radiometric assay; format: biochemical; conditions: 10uM, ATP 10 uM, Data 1, Data 2
T8 construct: purchased Reaction Biology (HotSpot contract assay)
Experimental: (§1) Accordingly, we selected five additional representative HSP90 inhibitors, at least one from each chemical class, including both synthetic inhibitors and natural products. […]
(§2) This radioisotope binding assay was designed to directly detect the true product without the use of modified substrates, coupling enzymes, or detection antibodies thus enabling to directly measure inhibition of catalytic activity. Test or control compounds were incubated with kinase, substrate, cofactors, and radioisotope-labeled ATP (32P-ɣ-ATP or 33P-ɣ-ATP). The reaction mixtures were then spotted onto filter papers, which bind the radioisotope-labeled catalytic product.

LYN B = molecular target: T9, LYN B (Homo sapiens, UniProt P07948); assay: HotSpot in vitro kinase radiometric assay; format: biochemical; conditions: 10uM, ATP 20 uM, Data 1, Data 2
T9 construct: purchased Reaction Biology (HotSpot contract assay)
Experimental: as §1, §2

PDK2/PDHK2 = molecular target: T10, PDK2/PDHK2 (Homo sapiens, UniProt Q15119); assay: HotSpot in vitro kinase radiometric assay; format: biochemical; conditions: 10uM, ATP 15 uM, Data 1, Data 2
T10 construct: purchased Reaction Biology (HotSpot contract assay)
Experimental: as §1, §2

PDK4/PDKH4 = molecular target: T11, PDK4/PDKH4 (Homo sapiens, UniProt Q16654); assay: HotSpot in vitro kinase radiometric assay; format: biochemical; conditions: 10uM, ATP 30 uM, Data 1, Data 2
T11 construct: purchased Reaction Biology (HotSpot contract assay)
Experimental: as §1, §2

c-Src = molecular target: T12, c-Src (Homo sapiens, UniProt P12931); assay: HotSpot in vitro kinase radiometric assay; format: biochemical; conditions: 10uM, ATP 15 uM, Data 1, Data 2
T12 construct: purchased Reaction Biology (HotSpot contract assay)
Experimental: as §1, §2

PEAK1 = molecular target: T13, PEAK1 (Homo sapiens, UniProt Q9H792); assay: HotSpot in vitro kinase radiometric assay; format: biochemical; conditions: 10uM, ATP 30 uM, Data 1, Data 2
T13 construct: purchased Reaction Biology (HotSpot contract assay)

FGR = molecular target: T14, FGR (Homo sapiens, UniProt P09769); assay: HotSpot in vitro kinase radiometric assay; format: biochemical; conditions: 10uM, ATP 50 uM, Data 1, Data 2
T14 construct: purchased Reaction Biology (HotSpot contract assay)

FYN = molecular target: T15, FYN (Homo sapiens, UniProt P06241); assay: HotSpot in vitro kinase radiometric assay; format: biochemical; conditions: 10uM, ATP 30 uM, Data 1, Data 2
T15 construct: purchased Reaction Biology (HotSpot contract assay)

PASK = molecular target: T16, PASK (Homo sapiens, UniProt Q96RG2); assay: HotSpot in vitro kinase radiometric assay; format: biochemical; conditions: 10uM, ATP 50 uM, Data 1, Data 2
T16 construct: purchased Reaction Biology (HotSpot contract assay)
Excerpt: (§3) Accordingly, we selected five additional representative HSP90 inhibitors, at least one from each chemical class, including both synthetic inhibitors and natural products.
(§4) Accordingly, we screened the hit compound and the two leads for kinase off-target inhibition using the 16-kinase panel and the same in vitro catalytic assay used previously.
as §2

TRKA = molecular target: T17, TRKA (Homo sapiens, UniProt P04629); assay: HotSpot in vitro kinase radiometric assay; format: biochemical; conditions: 10uM, ATP 100 uM, Data 1, Data 2
T17 construct: purchased Reaction Biology (HotSpot contract assay)
Excerpt: as §3, §4, §2

TRKC = molecular target: T18, TRKC (Homo sapiens, UniProt Q16288); assay: HotSpot in vitro kinase radiometric assay; format: biochemical; conditions: 10uM, ATP 100 uM, Data 1, Data 2
T18 construct: purchased Reaction Biology (HotSpot contract assay)

LCK = molecular target: T19, LCK (Homo sapiens, UniProt P06239); assay: HotSpot in vitro kinase radiometric assay; format: biochemical; conditions: 10uM, ATP 15 uM, Data 1, Data 2
T19 construct: purchased Reaction Biology (HotSpot contract assay)

YES/YES1 = molecular target: T20, YES/YES1 (Homo sapiens, UniProt P07947); assay: HotSpot in vitro kinase radiometric assay; format: biochemical; conditions: 10uM, ATP 50 uM, Data 1, Data 2
T20 construct: purchased Reaction Biology (HotSpot contract assay)

382 unique human kinases [7] = assay: biochemical; format: biochemical; conditions: cutoff of >85% inhibition at 10 μM; luminespib and ganetespib large kinome panel, others 16-kinase panel
16-kinase panel = 16-kinase panel screening, in vitro radiometric assay; format: biochemical, human; conditions: 10 μM
HSP90AA1 = conditions: average of reported values; ref ChEMBL23 (accessed: 23/08/2018); cited from earlier work
HSP90AB1 = test system: HSP90AB1; set-up: method as in ChEMBL23 (accessed: 23/08/2018); conditions: average of reported values; ref ChEMBL23 (accessed: 23/08/2018); cited from earlier work
TRAP1 = test system: TRAP1; set-up: method as in ChEMBL23 (accessed: 23/08/2018); conditions: average of reported values; ref ChEMBL23 (accessed: 23/08/2018); cited from earlier work
ABL1 = ABL1 (Homo sapiens, UniProt P00519); assay: HotSpot in vitro kinase radiometric assay; format: biochemical; set-up: purchased Reaction Biology (HotSpot contract assay); conditions: 10uM, ATP 40 uM, Data 1, Data 2
DDR1 = DDR1 (Homo sapiens, UniProt Q08345); assay: HotSpot in vitro kinase radiometric assay; format: biochemical; set-up: purchased Reaction Biology (HotSpot contract assay); conditions: 10uM, ATP 100 uM, Data 1, Data 2
382 unique human kinases [8] = molecular target: T21, 382 unique human kinases (Homo sapiens, UniProt Q6IQ55); assay: biochemical; format: biochemical; conditions: TTBK2; read-out: Control Compound IC50*
T21 construct: purchased Reaction Biology (HotSpot contract assay)

382 unique human kinases [9] = molecular target: T22, 382 unique human kinases (Homo sapiens, UniProt Q8TDX7); assay: biochemical; format: biochemical; conditions: NEK7; read-out: Control Compound IC50*
T22 construct: purchased Reaction Biology (HotSpot contract assay)

382 unique human kinases [10] = molecular target: T23, 382 unique human kinases (Homo sapiens, UniProt Q9HC98); assay: biochemical; format: biochemical; conditions: NEK6; read-out: Control Compound IC50*
T23 construct: purchased Reaction Biology (HotSpot contract assay)

T18 sequence (Q16288 32-839): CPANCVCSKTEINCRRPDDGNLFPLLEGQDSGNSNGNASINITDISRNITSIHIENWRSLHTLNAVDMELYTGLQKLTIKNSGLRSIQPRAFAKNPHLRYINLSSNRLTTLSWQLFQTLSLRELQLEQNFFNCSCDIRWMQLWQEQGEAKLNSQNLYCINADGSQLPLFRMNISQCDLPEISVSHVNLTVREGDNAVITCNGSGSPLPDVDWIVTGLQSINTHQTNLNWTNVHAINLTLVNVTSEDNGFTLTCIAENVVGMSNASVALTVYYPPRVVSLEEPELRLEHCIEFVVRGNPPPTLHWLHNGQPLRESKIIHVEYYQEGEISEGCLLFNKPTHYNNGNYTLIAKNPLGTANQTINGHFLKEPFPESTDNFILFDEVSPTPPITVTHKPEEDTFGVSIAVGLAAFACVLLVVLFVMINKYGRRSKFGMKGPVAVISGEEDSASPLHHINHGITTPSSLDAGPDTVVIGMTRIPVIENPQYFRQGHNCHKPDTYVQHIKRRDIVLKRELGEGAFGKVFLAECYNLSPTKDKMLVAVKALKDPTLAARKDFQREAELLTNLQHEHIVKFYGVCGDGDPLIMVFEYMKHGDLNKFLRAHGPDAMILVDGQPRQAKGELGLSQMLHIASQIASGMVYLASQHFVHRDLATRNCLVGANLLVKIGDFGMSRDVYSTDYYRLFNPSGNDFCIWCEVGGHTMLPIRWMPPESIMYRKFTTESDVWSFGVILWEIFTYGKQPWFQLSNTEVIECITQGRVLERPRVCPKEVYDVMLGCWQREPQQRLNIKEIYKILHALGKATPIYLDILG
T13 sequence (Q9H792 whole entry): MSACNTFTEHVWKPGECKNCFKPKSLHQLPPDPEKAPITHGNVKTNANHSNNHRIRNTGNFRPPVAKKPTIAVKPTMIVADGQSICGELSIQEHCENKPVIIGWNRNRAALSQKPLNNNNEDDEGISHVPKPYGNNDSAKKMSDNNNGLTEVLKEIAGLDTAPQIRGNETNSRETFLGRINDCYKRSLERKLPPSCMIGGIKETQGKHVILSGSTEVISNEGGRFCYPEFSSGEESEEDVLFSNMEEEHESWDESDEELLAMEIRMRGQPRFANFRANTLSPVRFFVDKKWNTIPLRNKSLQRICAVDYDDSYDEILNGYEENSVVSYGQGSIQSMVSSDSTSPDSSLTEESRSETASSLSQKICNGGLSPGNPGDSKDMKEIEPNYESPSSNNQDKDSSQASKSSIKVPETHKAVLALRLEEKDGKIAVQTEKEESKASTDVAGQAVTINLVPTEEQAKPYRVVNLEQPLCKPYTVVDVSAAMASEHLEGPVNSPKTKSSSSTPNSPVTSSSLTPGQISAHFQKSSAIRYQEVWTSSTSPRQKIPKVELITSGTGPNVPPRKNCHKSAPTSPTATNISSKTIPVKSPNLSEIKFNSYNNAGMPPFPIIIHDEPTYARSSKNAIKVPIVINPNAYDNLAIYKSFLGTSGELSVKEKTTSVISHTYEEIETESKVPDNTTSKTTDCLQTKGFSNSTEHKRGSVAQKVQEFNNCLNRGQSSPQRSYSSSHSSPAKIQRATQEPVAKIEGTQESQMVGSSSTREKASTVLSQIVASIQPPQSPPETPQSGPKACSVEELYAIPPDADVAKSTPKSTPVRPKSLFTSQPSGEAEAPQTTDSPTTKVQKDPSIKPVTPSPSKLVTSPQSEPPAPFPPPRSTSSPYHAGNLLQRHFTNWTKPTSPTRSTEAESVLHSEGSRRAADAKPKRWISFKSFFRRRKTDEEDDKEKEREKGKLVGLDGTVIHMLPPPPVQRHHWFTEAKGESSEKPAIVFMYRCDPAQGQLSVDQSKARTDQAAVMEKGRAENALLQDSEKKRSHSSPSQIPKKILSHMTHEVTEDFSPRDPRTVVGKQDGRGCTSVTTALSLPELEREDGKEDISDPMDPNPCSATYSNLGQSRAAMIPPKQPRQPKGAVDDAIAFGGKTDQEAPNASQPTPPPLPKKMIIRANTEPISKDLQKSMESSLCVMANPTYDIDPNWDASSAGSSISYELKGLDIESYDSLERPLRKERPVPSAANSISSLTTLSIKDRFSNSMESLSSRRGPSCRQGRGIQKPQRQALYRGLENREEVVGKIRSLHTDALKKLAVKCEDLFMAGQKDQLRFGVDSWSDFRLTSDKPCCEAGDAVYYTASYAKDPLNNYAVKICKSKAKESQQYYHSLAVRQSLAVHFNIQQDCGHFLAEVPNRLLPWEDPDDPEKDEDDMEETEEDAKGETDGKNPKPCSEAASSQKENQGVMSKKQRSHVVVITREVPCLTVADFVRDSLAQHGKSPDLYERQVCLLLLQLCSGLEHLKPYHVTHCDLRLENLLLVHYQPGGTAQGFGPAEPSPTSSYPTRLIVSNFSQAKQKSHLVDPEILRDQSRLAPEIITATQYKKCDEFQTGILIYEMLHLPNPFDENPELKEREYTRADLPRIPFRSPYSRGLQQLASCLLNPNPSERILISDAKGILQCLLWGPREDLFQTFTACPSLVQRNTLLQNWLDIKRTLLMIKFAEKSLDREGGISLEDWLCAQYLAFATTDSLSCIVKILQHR
T14 sequence (P09769 whole entry): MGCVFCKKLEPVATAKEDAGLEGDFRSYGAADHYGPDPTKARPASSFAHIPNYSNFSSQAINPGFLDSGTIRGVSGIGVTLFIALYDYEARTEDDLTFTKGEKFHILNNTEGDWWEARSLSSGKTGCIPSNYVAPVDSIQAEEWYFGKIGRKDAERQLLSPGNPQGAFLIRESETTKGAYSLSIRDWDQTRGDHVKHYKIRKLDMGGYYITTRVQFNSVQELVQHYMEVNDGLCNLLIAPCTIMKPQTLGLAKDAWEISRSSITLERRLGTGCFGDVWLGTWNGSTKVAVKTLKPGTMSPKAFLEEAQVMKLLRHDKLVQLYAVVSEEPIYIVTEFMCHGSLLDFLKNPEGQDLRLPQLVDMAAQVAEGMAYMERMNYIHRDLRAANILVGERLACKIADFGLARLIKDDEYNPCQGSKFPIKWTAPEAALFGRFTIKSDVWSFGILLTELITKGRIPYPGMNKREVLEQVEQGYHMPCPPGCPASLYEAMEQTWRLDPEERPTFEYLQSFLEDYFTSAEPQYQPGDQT
ABL1, sequence (P00519 whole entry): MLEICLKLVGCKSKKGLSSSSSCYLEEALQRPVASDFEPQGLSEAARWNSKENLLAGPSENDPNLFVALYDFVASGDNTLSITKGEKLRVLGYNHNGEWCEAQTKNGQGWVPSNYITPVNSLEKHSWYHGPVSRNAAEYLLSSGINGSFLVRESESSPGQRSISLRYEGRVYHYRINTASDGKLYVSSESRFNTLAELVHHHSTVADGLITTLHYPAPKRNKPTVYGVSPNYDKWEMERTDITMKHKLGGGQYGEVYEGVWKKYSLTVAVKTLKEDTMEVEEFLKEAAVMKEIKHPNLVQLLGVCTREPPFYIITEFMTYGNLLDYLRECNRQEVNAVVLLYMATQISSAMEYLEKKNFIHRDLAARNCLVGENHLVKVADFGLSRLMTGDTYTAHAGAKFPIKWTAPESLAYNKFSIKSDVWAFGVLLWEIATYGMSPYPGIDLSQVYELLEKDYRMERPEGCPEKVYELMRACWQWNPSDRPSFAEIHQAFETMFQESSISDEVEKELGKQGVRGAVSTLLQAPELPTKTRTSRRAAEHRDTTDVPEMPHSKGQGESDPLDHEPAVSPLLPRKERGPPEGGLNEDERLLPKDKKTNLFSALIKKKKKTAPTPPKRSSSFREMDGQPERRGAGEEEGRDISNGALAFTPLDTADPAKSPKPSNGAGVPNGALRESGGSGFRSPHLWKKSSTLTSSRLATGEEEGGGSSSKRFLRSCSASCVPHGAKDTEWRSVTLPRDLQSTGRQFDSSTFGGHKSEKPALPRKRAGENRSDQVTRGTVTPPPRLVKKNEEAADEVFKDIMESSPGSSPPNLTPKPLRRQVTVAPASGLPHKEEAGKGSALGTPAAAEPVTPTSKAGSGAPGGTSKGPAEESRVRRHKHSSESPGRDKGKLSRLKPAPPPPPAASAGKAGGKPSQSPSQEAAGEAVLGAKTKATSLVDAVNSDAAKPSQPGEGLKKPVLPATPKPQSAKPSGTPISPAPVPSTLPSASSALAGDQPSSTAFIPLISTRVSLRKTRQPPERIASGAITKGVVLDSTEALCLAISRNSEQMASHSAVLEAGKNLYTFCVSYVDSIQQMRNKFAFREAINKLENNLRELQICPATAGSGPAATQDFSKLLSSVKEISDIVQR
T19 sequence (P06239 whole entry): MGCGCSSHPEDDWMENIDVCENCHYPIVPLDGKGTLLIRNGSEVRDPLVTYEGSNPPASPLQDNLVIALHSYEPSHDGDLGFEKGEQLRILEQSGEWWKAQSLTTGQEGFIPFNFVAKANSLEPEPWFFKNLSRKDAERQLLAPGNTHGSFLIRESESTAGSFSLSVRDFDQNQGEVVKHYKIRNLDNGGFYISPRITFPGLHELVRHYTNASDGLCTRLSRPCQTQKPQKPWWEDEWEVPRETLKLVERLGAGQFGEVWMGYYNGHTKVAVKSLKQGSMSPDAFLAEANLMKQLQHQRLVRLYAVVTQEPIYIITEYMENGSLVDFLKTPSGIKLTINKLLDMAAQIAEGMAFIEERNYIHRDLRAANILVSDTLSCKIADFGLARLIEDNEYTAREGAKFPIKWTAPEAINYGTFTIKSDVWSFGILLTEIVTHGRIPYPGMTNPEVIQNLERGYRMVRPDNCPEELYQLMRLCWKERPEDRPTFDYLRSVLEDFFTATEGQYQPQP
T22 sequence (Q8TDX7 whole entry): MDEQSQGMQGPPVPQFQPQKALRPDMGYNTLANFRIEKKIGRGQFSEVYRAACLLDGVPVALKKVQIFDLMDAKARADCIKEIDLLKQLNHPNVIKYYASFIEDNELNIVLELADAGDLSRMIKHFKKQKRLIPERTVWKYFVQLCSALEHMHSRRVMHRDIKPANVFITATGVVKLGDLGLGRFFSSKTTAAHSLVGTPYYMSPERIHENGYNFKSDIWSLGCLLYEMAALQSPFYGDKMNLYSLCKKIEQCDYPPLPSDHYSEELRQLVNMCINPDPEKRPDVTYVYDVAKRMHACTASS

c1ccc2c(-c3cnn4cc(-c5ccc(N6CCNCC6)cc5)cnc34)ccnc2c1 [LDN193189]
IC50 (382 unique human kinases [1]): 0.165 µM

Ro-31-8220
IC50 (382 unique human kinases [2]): 7.83 µM
IC50 (382 unique human kinases [3]): 9.05 µM
IC50 (382 unique human kinases [4]): 0.8 µM
IC50 (382 unique human kinases [5]): 0.0443 µM
IC50 (382 unique human kinases [6]): 0.528 µM

CN(C)c1cc2c(cc1Sc1nc3c(N)nccc3n1CCNCC(C)(C)C)OCO2 [Debio-0932]
% Enzyme Activity (relative to DMSO controls) (ABL2/ARG; ABL2/ARG): 106.65%
remaining activity at 10 µM (ABL2/ARG; read-out: % Enzyme Activity (relative to DMSO controls), ABL2/ARG): 107%
% Enzyme Activity (relative to DMSO controls) (BLK; BLK): 109.86%
remaining activity at 10 µM (BLK; read-out: % Enzyme Activity (relative to DMSO controls), BLK): 110%
% Enzyme Activity (relative to DMSO controls) (LYN B; LYN B): 101.36%
remaining activity at 10 µM (LYN B; read-out: % Enzyme Activity (relative to DMSO controls), LYN B): 101%
% Enzyme Activity (relative to DMSO controls) (PDK2/PDHK2; PDK2/PDHK2): 100.31%
remaining activity at 10 µM (PDK2/PDHK2; read-out: % Enzyme Activity (relative to DMSO controls), PDK2/PDHK2): 108%
% Enzyme Activity (relative to DMSO controls) (PDK4/PDKH4; PDK4/PDKH4): 111.02%
remaining activity at 10 µM (PDK4/PDKH4; read-out: % Enzyme Activity (relative to DMSO controls), PDK4/PDKH4): 111%
% Enzyme Activity (relative to DMSO controls) (c-Src; c-Src): 109.48%
remaining activity at 10 µM (c-Src; read-out: % Enzyme Activity (relative to DMSO controls), c-Src): 107%
% Enzyme Activity (relative to DMSO controls) (PEAK1; PEAK1): 103.94%
remaining activity at 10 µM (PEAK1; read-out: % Enzyme Activity (relative to DMSO controls), PEAK1): 104%
% Enzyme Activity (relative to DMSO controls) (FGR; FGR): 101.88%
remaining activity at 10 µM (FGR; read-out: % Enzyme Activity (relative to DMSO controls), FGR): 102%
% Enzyme Activity (relative to DMSO controls) (FYN; FYN): 102.22%
remaining activity at 10 µM (FYN; read-out: % Enzyme Activity (relative to DMSO controls), FYN): 103%
% Enzyme Activity (relative to DMSO controls) (PASK; PASK): 102.33%
remaining activity at 10 µM (PASK; read-out: % Enzyme Activity (relative to DMSO controls), PASK): 101%
% Enzyme Activity (relative to DMSO controls) (TRKA; TRKA): 103.51%
remaining activity at 10 µM (TRKA; read-out: % Enzyme Activity (relative to DMSO controls), TRKA): 104%
% Enzyme Activity (relative to DMSO controls) (TRKC; TRKC): 97.21%
remaining activity at 10 µM (TRKC; read-out: % Enzyme Activity (relative to DMSO controls), TRKC): 93.3%
% Enzyme Activity (relative to DMSO controls) (LCK; LCK): 109.56%
remaining activity at 10 µM (LCK; read-out: % Enzyme Activity (relative to DMSO controls), LCK): 110%
% Enzyme Activity (relative to DMSO controls) (YES/YES1; YES/YES1): 102.37%
remaining activity at 10 µM (YES/YES1; read-out: % Enzyme Activity (relative to DMSO controls), YES/YES1): 96%
number of off-target kinases experimentally identified, In vitro binding (KinomeSCAN) (382 unique human kinases [7]): 0
activity against the 16-kinase panel (16-kinase panel): inactive
pActivity, HSP90AA1 (HSP90AA1): 7.48
pActivity, HSP90AB1 (HSP90AB1): 7.42
pActivity, TRAP1 (TRAP1): 5.8
% Enzyme Activity (relative to DMSO controls) (ABL1; ABL1): 104.74%
remaining activity at 10 µM (ABL1; read-out: % Enzyme Activity (relative to DMSO controls), ABL1): 111%
% Enzyme Activity (relative to DMSO controls) (DDR1; DDR1): 85.1%
remaining activity at 10 µM (DDR1; read-out: % Enzyme Activity (relative to DMSO controls), DDR1): 94.8%

Oc1ccc(-c2nc(-c3ccncc3)c(-c3ccc(F)cc3)[nH]2)cc1 [SB202190]
IC50 (382 unique human kinases [8]): 9.41 µM

O=C1Nc2ccc3ncsc3c2/C1=C/c1cnc[nH]1 [PKR Inhibitor]
IC50 (382 unique human kinases [9]): 12.4 µM
IC50 (382 unique human kinases [10]): 35.5 µM
